Reference: US10639303B2, “Alkaloids and their preparation and application as anti-HSV-1 agents” (OCEAN UNIVERSITY OF CHINA, priority 2015, dated 2020)
Read-outs that look alike come from different tables or passages of the source.

What was measured:
HSV-1 = test: cytopathic effects (CPE) assay, antiviral activity against HSV-1 in Hep-2 cells; assay type: cell-based, Herpes Simplex Virus 1; conditions: Human alphaherpesvirus 1; HSV-1-infected Hep-2 cells, neutral red OD 540 nm, Reed-Muench; read-out: IC50 (anti-HSV-1 activity)
Procedure: The antiviral activities against HSV-1 were evaluated by a cytopathic effects (CPE) assay. Hep-2 monolayer cells were cultured with trypsin enzyme-digesting technique and transferred to 96-well plates. The HSV-1 virus was seeded in Hep-2 cells in 96-well plates, with 2% RPMI-1640 medium, and incubated at 37° C., 5% CO2. After more than 90% lesions, the virus-infected cells were repeatedly frozen and thawed 3 times, centrifuged, quantitative packed and stored at −80° C. Each tested compound was dissolved in 10 μl DMSO to make a homogeneous solution and the solution was diluted 10 times by half-and-half dilution with 2% RPMI-1640 medium. The gradient solution was added to the infected cells incubated in 96-well plates, Ribavirin was used as positive control. Normal cells were used as blank control. Infected cells were used as negative control. All samples were incubated at 37° C., 5% CO2. Pathological changes were observed once every hour, for 24 h. After 90% lesions in negative control, 1% neutral red was added after removal of liquid in 96-well plates. The OD value was determined at 540 nm. IC50 values of tested compounds were calculated by Reed-Muench methods.

[1] = cytotoxicity (TC50) accompanying the CPE assay; assay type: cell-based; conditions: human

| Compound | IC50 (HSV-1) | CC50 at 24 h [1] | CC50 at 24 h ([1]; Hep-2 cells, read-out: TC50) |
| --- | --- | --- | --- |
| C=C(C)[C@@H]1CC[C@](C)(/C=C/c2ccc3c(c2O)[C@@](O)(c2ccccc2)[C@H](OC)C(=O)N3)O1 | 0.07 µM | 64.9 µM |  |
| CO[C@@H]1C(=O)Nc2ccc(/C=C/[C@]3(C)CC[C@H](O)[C@@H](C)C3)c(O)c2[C@@]1(O)c1ccccc1 | 0.21 µM | 36.9 µM |  |
| NC(=O)c1ncn([C@@H]2O[C@H](CO)[C@@H](O)[C@H]2O)n1 [Ribavirin, reference compound] | 78 µM |  | > 10000 µM |
